Test results taken from ChEMBL document CHEMBL3991601, “The target landscape of clinical kinase drugs” (Science, 2017).
pKd: −log10 of the molar value. The source made the active and inactive calls.

How the values were obtained:
[1] = target: T1, Succinate--CoA ligase [ADP-forming] subunit beta, mitochondrial (Homo sapiens, UniProt Q9P2R7)
T1 sequence (Q9P2R7 whole entry): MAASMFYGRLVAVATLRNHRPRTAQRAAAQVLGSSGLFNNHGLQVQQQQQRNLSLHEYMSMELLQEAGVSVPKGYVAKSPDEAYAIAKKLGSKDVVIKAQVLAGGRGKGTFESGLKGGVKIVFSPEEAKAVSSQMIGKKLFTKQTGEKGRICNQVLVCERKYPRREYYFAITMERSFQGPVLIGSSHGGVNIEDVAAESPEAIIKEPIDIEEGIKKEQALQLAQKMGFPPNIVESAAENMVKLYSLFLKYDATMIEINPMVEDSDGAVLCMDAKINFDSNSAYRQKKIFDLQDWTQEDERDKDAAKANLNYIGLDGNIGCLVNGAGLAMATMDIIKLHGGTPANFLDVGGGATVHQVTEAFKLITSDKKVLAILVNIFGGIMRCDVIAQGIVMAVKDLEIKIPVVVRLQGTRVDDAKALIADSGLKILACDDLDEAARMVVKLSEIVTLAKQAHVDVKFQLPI

[2] = target: T2, Aurora kinase A (Homo sapiens, UniProt O14965)
T2 sequence (O14965 whole entry): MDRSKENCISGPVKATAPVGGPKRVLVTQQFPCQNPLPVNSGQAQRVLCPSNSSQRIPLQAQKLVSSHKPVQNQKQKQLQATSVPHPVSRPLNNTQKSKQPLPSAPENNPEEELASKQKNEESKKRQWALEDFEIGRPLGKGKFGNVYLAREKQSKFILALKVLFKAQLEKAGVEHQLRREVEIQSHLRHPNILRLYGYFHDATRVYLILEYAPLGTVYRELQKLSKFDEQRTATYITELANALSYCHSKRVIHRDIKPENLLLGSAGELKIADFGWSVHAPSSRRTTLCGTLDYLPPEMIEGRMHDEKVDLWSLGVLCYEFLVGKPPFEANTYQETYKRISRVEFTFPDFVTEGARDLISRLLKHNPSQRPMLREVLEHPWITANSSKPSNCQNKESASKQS

[3] = target: Adenylate kinase 2, mitochondrial (Homo sapiens, UniProt P54819)
[4] = target: Structural maintenance of chromosomes protein 2 (Homo sapiens, UniProt O95347)
[5] = target: Mitogen-activated protein kinase kinase kinase 20 (Homo sapiens, UniProt Q9NYL2)
[6] = target: T3, ATP-dependent RNA helicase DDX42 (Homo sapiens, UniProt Q86XP3)
T3 sequence (Q86XP3 whole entry): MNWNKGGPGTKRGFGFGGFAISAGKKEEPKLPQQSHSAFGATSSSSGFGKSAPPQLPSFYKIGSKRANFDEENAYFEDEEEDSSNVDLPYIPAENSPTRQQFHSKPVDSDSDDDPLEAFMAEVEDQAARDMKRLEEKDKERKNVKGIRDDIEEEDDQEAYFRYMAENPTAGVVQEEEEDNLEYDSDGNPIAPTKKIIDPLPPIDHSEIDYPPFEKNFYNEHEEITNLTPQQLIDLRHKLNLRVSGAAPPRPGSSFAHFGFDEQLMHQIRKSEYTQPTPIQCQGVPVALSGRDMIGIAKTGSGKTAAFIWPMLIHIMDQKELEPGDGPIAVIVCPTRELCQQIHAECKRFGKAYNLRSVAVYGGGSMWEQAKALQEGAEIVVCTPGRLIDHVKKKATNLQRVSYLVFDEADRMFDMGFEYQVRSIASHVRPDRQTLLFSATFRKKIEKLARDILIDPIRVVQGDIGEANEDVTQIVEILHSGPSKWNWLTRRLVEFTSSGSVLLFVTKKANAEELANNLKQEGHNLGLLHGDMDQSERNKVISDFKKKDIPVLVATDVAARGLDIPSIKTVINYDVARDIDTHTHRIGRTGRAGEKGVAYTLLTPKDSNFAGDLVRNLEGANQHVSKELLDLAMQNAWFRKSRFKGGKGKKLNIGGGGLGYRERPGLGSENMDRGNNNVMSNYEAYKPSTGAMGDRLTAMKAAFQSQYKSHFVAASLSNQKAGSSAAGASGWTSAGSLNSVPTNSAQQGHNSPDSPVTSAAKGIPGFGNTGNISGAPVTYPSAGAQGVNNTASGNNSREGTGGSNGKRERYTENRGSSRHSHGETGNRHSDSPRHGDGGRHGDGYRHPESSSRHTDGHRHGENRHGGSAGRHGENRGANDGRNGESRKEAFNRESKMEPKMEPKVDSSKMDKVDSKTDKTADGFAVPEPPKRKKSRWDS

[7] = target: T4, Phenylalanine--tRNA ligase beta subunit (Homo sapiens, UniProt Q9NSD9)
T4 sequence (Q9NSD9 whole entry): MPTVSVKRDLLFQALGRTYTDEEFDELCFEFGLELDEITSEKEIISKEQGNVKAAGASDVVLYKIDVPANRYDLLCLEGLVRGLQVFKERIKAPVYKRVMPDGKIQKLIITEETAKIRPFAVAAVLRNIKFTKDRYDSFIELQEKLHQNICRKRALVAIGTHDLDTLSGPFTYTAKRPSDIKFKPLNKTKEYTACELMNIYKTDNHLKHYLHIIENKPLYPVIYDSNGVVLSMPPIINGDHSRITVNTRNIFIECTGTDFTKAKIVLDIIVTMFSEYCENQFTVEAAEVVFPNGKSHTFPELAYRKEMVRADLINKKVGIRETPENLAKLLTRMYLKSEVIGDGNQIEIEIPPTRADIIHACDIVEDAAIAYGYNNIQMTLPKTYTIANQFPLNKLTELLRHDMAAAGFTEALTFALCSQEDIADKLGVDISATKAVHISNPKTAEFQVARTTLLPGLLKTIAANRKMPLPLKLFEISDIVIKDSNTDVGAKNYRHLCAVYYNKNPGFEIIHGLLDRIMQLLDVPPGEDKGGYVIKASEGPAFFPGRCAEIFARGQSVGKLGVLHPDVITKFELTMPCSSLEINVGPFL

[8] = target: T5, Electron transfer flavoprotein subunit beta (Homo sapiens, UniProt P38117)
T5 sequence (P38117 whole entry): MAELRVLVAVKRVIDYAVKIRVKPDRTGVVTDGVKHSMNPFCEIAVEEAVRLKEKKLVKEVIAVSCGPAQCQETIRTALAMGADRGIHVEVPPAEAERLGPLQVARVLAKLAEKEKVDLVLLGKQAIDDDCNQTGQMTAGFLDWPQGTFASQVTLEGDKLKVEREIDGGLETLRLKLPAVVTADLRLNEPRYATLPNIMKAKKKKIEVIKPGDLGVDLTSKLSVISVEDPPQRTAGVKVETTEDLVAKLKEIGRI
Also: in the data inactive means no Kd found up to 30 µM.

Chain of Structural maintenance of chromosomes protein 2 (O95347 whole entry): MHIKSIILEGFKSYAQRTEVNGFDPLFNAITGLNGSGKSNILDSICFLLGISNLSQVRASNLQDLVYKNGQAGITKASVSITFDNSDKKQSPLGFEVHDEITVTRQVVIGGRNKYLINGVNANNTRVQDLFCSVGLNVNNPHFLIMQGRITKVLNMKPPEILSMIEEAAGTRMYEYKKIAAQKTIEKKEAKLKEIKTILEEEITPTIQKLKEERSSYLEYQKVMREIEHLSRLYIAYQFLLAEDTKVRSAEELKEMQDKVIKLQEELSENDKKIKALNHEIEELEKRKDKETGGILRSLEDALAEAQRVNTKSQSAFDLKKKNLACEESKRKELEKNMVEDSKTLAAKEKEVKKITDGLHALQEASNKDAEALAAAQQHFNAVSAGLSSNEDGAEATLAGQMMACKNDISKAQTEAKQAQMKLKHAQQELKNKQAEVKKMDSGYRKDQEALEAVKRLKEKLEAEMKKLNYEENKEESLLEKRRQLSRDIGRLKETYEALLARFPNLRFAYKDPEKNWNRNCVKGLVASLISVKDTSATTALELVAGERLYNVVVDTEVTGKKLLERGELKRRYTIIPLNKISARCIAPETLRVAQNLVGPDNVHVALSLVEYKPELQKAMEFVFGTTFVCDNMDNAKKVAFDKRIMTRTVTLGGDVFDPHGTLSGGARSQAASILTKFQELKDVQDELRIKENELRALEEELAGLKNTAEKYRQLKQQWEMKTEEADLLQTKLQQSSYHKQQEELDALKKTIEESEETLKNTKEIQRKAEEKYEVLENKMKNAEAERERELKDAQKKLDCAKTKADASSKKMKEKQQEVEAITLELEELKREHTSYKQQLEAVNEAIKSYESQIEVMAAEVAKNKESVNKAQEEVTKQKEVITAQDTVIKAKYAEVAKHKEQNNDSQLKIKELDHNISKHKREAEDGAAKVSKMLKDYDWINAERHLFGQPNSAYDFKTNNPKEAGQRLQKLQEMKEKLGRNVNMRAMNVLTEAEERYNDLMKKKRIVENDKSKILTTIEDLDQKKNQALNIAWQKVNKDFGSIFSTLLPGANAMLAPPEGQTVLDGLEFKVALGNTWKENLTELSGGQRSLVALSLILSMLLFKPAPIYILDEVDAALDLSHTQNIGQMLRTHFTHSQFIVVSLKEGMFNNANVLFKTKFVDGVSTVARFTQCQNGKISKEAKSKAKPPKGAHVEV
Chain of Mitogen-activated protein kinase kinase kinase 20 (Q9NYL2 whole entry): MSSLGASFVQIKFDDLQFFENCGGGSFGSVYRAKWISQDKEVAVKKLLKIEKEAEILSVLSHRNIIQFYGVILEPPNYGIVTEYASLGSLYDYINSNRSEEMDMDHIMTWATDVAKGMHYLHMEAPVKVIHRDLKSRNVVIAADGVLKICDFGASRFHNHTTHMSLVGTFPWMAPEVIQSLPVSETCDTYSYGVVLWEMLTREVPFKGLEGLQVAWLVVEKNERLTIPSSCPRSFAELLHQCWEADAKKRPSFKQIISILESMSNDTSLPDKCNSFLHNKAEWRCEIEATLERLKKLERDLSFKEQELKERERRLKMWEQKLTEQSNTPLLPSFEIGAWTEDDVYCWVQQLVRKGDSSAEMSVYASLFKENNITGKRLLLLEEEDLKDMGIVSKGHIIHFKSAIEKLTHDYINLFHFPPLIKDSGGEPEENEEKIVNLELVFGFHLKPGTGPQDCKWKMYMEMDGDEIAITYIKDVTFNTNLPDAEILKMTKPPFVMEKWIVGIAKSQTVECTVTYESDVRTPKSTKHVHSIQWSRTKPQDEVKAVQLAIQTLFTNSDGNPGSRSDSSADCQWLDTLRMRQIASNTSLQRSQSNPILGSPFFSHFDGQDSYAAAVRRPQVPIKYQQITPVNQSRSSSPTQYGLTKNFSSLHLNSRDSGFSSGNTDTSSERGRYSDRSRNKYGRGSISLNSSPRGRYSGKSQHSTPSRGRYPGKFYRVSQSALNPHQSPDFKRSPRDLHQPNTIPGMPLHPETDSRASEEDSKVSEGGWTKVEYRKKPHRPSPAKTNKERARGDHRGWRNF

| Compound | Kd [1] | Kd [2] | Kd [3] | Kd [4] | Kd [5] | Kd [6] | Kd [7] | Kd [8] | pKd [2] |
| --- | --- | --- | --- | --- | --- | --- | --- | --- | --- |
| O=c1[nH]c([C@@H]2CCCN2)nc2c1oc1ccc(Cl)cc12 | > 30 µM (inactive) | > 30 µM (inactive) | > 30 µM (inactive) | > 30 µM (inactive) | > 30 µM (inactive) | > 30 µM (inactive) |  |  |  |
| CCN1CCN(Cc2ccc(Nc3ncc(F)c(-c4cc(F)c5nc(C)n(C(C)C)c5c4)n3)nc2)CC1 [ABEMACICLIB] | > 30 µM (inactive) | > 30 µM (inactive) | > 30 µM (inactive) | > 30 µM (inactive) | > 30 µM (inactive) | > 30 µM (inactive) | > 30 µM (inactive) |  |  |
| CC[C@@](C)(Nc1ccnc(-c2c[nH]c3ncccc23)n1)C(=O)NCC(F)(F)F [DECERNOTINIB] | > 30 µM (inactive) | > 30 µM (inactive) | > 30 µM (inactive) | > 30 µM (inactive) | > 30 µM (inactive) |  | > 30 µM (inactive) | > 30 µM (inactive) |  |
| CNC(=O)c1ccc(Nc2ncc(C(F)(F)F)c(NCc3nccnc3N(C)S(C)(=O)=O)n2)cc1 [DEFACTINIB] | > 30 µM (inactive) | 0.622 µM (active) | > 30 µM (inactive) | > 30 µM (inactive) | > 30 µM (inactive) | > 30 µM (inactive) | > 30 µM (inactive) |  |  |
| COc1cc(Nc2ncc(F)c(Nc3ccc4c(n3)N(COP(=O)(O)O)C(=O)C(C)(C)O4)n2)cc(OC)c1OC [FOSTAMATINIB] | > 30 µM (inactive) | 0.3 µM (active) | > 30 µM (inactive) | > 30 µM (inactive) | > 30 µM (inactive) |  | > 30 µM (inactive) | > 30 µM (inactive) |  |
| CCc1nc(C(N)=O)c(Nc2ccc(N3CCC(N4CCN(C)CC4)CC3)c(OC)c2)nc1NC1CCOCC1 [GILTERITINIB] | > 30 µM (inactive) |  | > 30 µM (inactive) | > 30 µM (inactive) | > 30 µM (inactive) |  | > 30 µM (inactive) | > 30 µM (inactive) | 6.74 |
| Cc1c(Cn2c(C)nc3c(C(=O)O)cc(N4CCOCC4)cc32)cccc1C(F)(F)F [GSK-2636771] | > 30 µM (inactive) | > 30 µM (inactive) | > 30 µM (inactive) | > 30 µM (inactive) | > 30 µM (inactive) |  | > 30 µM (inactive) | > 30 µM (inactive) |  |
| FC(F)(F)c1ccc(CNc2ccc(Cc3c[nH]c4ncc(Cl)cc34)cn2)cn1 [PEXIDARTINIB] | > 30 µM (inactive) | > 30 µM (inactive) | > 30 µM (inactive) | > 30 µM (inactive) | > 30 µM (inactive) | > 30 µM (inactive) | > 30 µM (inactive) |  |  |
| C=CCN(/C=C1/C(=O)O[C@H](COC)[C@@]2(C)C1=C(O)C(=O)C1=C2[C@H](OC(C)=O)C[C@]2(C)C(=O)CC[C@@H]12)CC=C [SONOLISIB] | > 30 µM (inactive) | > 30 µM (inactive) |  | > 30 µM (inactive) | > 30 µM (inactive) |  | > 30 µM (inactive) |  |  |
| CN1CCN(c2nc(C3=C(c4c[nH]c5ccccc45)C(=O)NC3=O)c3ccccc3n2)CC1 [SOTRASTAURIN] | > 30 µM (inactive) | > 30 µM (inactive) | > 30 µM (inactive) | > 30 µM (inactive) | > 30 µM (inactive) |  | > 30 µM (inactive) |  |  |
| O[C@H]1CC[C@H](Nc2ncc3nc(Nc4c(F)cc(F)cc4F)n([C@H]4CCOC4)c3n2)CC1 [TANZISERTIB] | > 30 µM (inactive) | > 30 µM (inactive) | > 30 µM (inactive) | > 30 µM (inactive) | > 30 µM (inactive) |  | > 30 µM (inactive) |  |  |
| Cc1cc(-c2cc(OC(=O)c3ccccc3)ccc2Cl)cc2nnc(Nc3ccc(OCCN4CCCC4)cc3)nc12 [TG100-801] |  | > 30 µM (inactive) | > 30 µM (inactive) | > 30 µM (inactive) | > 30 µM (inactive) |  | > 30 µM (inactive) |  |  |
| C[C@@H]1COC(Nc2ccc3ncnc(Nc4ccc(OCc5nccs5)c(Cl)c4)c3c2)=N1 [VARLITINIB] | > 30 µM (inactive) | > 30 µM (inactive) | > 30 µM (inactive) | > 30 µM (inactive) | > 30 µM (inactive) | > 30 µM (inactive) | > 30 µM (inactive) |  |  |

Second part, led by results:

| Kd [1] | Kd [2] | Kd [3] | Kd [4] | Kd [5] | Kd [6] | Kd [7] | Kd [8] | Compound | pKd [2] |
| --- | --- | --- | --- | --- | --- | --- | --- | --- | --- |
| > 30 µM (inactive) | > 30 µM (inactive) | > 30 µM (inactive) | > 30 µM (inactive) | 0.282 µM (active) | > 30 µM (inactive) | > 30 µM (inactive) |  | COc1cccc(Nc2ncnn3ccc(CN4CC[C@@H](N)[C@H](O)C4)c23)c1 [BMS-690514] |  |
|  | > 30 µM (inactive) | > 30 µM (inactive) | > 30 µM (inactive) | > 30 µM (inactive) |  | > 30 µM (inactive) | > 30 µM (inactive) | c1cc(OCCN2CCCCC2)cc(-c2n[nH]c3ccc(-c4nc[nH]n4)cc23)c1 [CC-401] |  |
|  | > 30 µM (inactive) | > 30 µM (inactive) | > 30 µM (inactive) | 7.73 µM (active) |  | > 30 µM (inactive) |  | O=C(Nc1ccc(OC(F)(F)F)cc1)c1sccc1NCc1ccnc2ccccc12 [OSI-930] |  |
| > 30 µM (inactive) | > 30 µM (inactive) | > 30 µM (inactive) | > 30 µM (inactive) | > 30 µM (inactive) | > 30 µM (inactive) | > 30 µM (inactive) |  | CC(C)(O)CC(=O)NCCn1ccc2ncnc(Nc3ccc(Oc4cccc(C(F)(F)F)c4)c(Cl)c3)c21 [TAK-285] |  |
| > 30 µM (inactive) | > 30 µM (inactive) | > 30 µM (inactive) | > 30 µM (inactive) | > 30 µM (inactive) |  | > 30 µM (inactive) |  | Cc1cc(C(=O)Nc2cc(Oc3ccc4nc(NC(=O)C5CC5)cn4n3)ccc2C)n(C)n1 [TAK-593] |  |
